Data reported in paper PMC4032265 (PLoS ONE, 2014).
“And” between values parts separate entries of the source, which are not always exact repeats. Equal entries are not always repeated. Where two headings read alike, the source gives them in different places.

Assays:
[1] = biological target: 5HT2B serotonergic receptor (Homo sapiens, UniProt P41595); assay: PDSP radioligand binding, 5HT2B; conditions: for Ki: full concentration-response curves, n = 3-6 unless noted; for inhibition at 10 µM: read-out: % inhibition at 10 µM
[2] = biological target: 5HT7 serotonergic receptor (Homo sapiens, UniProt P34969); assay: PDSP radioligand binding, 5HT7; conditions: for inhibition at 10 µM: read-out: % inhibition at 10 µM; for Ki: full curve, n = 1
δ opioid receptor = δ opioid receptor (Homo sapiens, UniProt P41143); assay: PDSP radioligand binding, δ opioid; conditions: for Ki: full concentration-response curves, n = 3-6 unless noted; for inhibition at 10 µM: read-out: % inhibition at 10 µM
[3] = biological target: T1, M1 muscarinic acetylcholine receptor (Homo sapiens, UniProt P11229); assay: PDSP radioligand binding, M1; conditions: read-out: % inhibition at 10 µM
T1 sequence (P11229 1-460): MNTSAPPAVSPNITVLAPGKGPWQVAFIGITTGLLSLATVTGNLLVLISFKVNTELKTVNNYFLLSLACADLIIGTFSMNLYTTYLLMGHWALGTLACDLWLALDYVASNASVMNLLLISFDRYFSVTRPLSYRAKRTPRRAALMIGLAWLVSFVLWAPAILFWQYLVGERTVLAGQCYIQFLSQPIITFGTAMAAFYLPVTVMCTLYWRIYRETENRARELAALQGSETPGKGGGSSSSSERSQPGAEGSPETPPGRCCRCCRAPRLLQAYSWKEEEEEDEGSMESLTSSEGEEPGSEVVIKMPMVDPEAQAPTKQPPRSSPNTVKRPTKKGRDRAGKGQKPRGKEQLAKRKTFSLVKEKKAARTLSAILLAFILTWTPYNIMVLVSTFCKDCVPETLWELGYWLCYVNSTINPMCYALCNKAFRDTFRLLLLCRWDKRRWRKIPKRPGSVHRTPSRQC

[4] = biological target: H2 histaminergic receptor (Homo sapiens, UniProt P25021); assay: PDSP radioligand binding, H2; conditions: read-out: % inhibition at 10 µM
[5] = biological target: 5HT2A serotonergic receptor (Homo sapiens, UniProt P28223); assay: PDSP radioligand binding, 5HT2A; conditions: read-out: % inhibition at 10 µM
[6] = biological target: 5HT6 serotonergic receptor (Homo sapiens, UniProt P50406); assay: PDSP radioligand binding, 5HT6; conditions: read-out: % inhibition at 10 µM
hA1AR [7] = biological target: T2, hA1AR (Homo sapiens, UniProt P30542); conditions: ref 1-4 of Table S1 (Tosh et al. 2009, 2012); cited from earlier work
T2 sequence (P30542 1-326): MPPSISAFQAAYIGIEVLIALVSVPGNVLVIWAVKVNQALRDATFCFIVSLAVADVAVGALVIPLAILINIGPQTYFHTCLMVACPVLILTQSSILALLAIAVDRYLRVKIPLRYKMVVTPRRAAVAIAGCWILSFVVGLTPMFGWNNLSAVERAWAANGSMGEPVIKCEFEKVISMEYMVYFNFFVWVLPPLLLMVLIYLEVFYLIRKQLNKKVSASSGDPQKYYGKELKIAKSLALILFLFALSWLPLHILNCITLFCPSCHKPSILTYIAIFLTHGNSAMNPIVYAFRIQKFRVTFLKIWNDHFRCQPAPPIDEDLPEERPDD

hA2AAR [8] = biological target: T3, hA2AAR (Homo sapiens, UniProt P29274); parameters: method as in earlier work; conditions: ref 1-4 of Table S1 (Tosh et al. 2009, 2012); cited from earlier work
5HT2B receptor = 5HT2B receptor (Homo sapiens, UniProt P41595); assay: 5HT2B functional assay, antagonist mode (inhibition of agonist activity); type: cell-based; conditions: for % inhibition as antagonist at 5HT2B: 10 µM; for IC50: antagonist mode
5HT2C receptor = 5HT2C receptor (Homo sapiens, UniProt P28335); assay: 5HT2C functional assay, antagonist mode (inhibition of agonist activity); type: cell-based; conditions: 10 µM
hA1AR [9] = biological target: T2, hA1AR; assay: Radioligand binding at hA1AR; conditions: compounds 8 and 9, measured for this study
hA2AAR [10] = biological target: T3, hA2AAR; assay: Radioligand binding at hA2AAR; conditions: compounds 8 and 9, measured for this study
hA3AR = hA3AR (Homo sapiens, UniProt P0DMS8); assay: Radioligand binding at hA3AR
α2C adrenergic receptor = biological target: T4, α2C adrenergic receptor (Homo sapiens, UniProt P18825); assay: α2C adrenergic receptor functional assay (antagonist); type: cell-based
T4 sequence (P18825 1-462): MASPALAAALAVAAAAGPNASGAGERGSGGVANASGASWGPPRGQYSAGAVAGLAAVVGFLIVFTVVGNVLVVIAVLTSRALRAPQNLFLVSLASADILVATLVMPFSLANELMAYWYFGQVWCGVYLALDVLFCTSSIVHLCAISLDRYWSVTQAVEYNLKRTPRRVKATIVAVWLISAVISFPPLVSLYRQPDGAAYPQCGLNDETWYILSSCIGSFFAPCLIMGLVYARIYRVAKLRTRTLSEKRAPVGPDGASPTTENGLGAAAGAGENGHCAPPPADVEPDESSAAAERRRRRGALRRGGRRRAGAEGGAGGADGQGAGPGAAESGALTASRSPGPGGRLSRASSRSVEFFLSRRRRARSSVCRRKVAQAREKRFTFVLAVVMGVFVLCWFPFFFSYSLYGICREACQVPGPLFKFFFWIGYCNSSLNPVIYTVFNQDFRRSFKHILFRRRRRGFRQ

KXα3β4 receptor 2 = biological target: T5, KXα3β4 receptor 2 (Rattus norvegicus, UniProt P04757+P12392); assay: 86Rb+ efflux, nicotinic acetylcholine receptor antagonist activity, KXα3β4 receptor 2 cells; type: cell-based; conditions: cells expressing KXα3β4 receptor 2
T5 construct: expressed in transfected cells; host or cells: KXα3β4 receptor 2 (KXα3β4R2) cells

YXα3β4H1 receptor = biological target: T6, YXα3β4H1 receptor (Homo sapiens, UniProt P30926+P32297); assay: 86Rb+ efflux, nicotinic acetylcholine receptor antagonist activity, YXα3β4H1 cells; type: cell-based; conditions: cells expressing YXα3β4H1 receptor
T6 construct: expressed in transfected cells

KXα4β2 receptor 2 = biological target: T7, KXα4β2 receptor 2 (Rattus norvegicus, UniProt P09483+P12390); assay: [3H]epibatidine binding in cells expressing KXα4β2 receptor 2
T7 construct: expressed in transfected cells

[11] = read-out: IC50 at 5HT2B receptors (Figure S2)

Compound	Ki [1]	inhibition at 10 µM [1] [%]	inhibition at 10 µM ([5]; single concentration 10 µM) [%]	hA1AR % inhibition (hA1AR [7])	hA2AAR % inhibition (hA2AAR [8])	inhibition at 10 µM ([1]; single concentration 10 µM) [%]	inhibition at 10 µM ([2]; single concentration 10 µM) [%]	inhibition at 10 µM (δ opioid receptor; single concentration 10 µM) [%]	inhibition at 10 µM ([3]; single concentration 10 µM) [%]	inhibition at 10 µM ([6]; single concentration 10 µM) [%]	inhibition at 10 µM [5] [%]	also measured
CNC(=O)[C@@]12C[C@@H]1[C@@H](n1cnc3c(NCc4cccc(Cl)c4)nc(C#Cc4ccc(F)c(F)c4)nc31)[C@H](O)[C@@H]2O [Compound 1]	2.58 ± 0.22 µM	34	5	< 10%	41%±10%							inhibition at 10 µM [2]: 5%; Ki (δ opioid receptor): 2.44 ± 1.54 µM; inhibition at 10 µM (δ opioid receptor): 44%; inhibition at 10 µM [3]: 9%; inhibition at 10 µM [4]: 34%; inhibition at 10 µM [6]: 0%
CNC(=O)[C@@]12C[C@@H]1[C@@H](n1cnc3c(NCc4cccc(Cl)c4)nc(C#Cc4ccc(F)cc4)nc31)[C@H](O)[C@@H]2O [Compound 2]	2.13 ± 0.27 µM		19	20%±6%	42%±2%	56	6	24	12	36		Ki (δ opioid receptor): 6.62 ± 1.7 µM
CNC(=O)[C@@]12C[C@@H]1[C@@H](n1cnc3c(NCc4cccc(Cl)c4)nc(C#Cc4ccccc4Cl)nc31)[C@H](O)[C@@H]2O [Compound 3]	3.65 ± 1.05 µM		26	19%±2%	52%±12%	55	8	31	0	59		
CNC(=O)[C@@]12C[C@@H]1[C@@H](n1cnc3c(NCc4cccc(Cl)c4)nc(Cl)nc31)[C@H](O)[C@@H]2O [Compound 4]	0.075 ± 0.007 µM		34			95	40 ± 7	10	0	9		Ki [2]: 7.73 µM; % inhibition as antagonist at 5HT2B (5HT2B receptor): 60%; IC50 (5HT2B receptor; read-out: IC50, inhibition of agonist activity at 5HT2B): 0.887 µM; IC50 (5HT2B receptor; [11]): 3.26 µM; % inhibition as antagonist at 5HT2C (5HT2C receptor): 94%
CNC(=O)[C@@]12C[C@@H]1[C@@H](n1cnc3c(NC)nc(C#Cc4ccc(F)c(F)c4)nc31)[C@H](O)[C@@H]2O [Compound 5]		4		< 10%	< 10%		0	9	0	15	11	
O[C@@H]1[C@H](O)[C@@H]2C[C@@H]2[C@H]1n1cnc2c(NCc3cccc(Cl)c3)nc(C#Cc3ccc(F)c(F)c3)nc21 [Compound 6]			6	29%±1%		34	0	11	3	0		inhibition at 10 µM ([4]; single concentration 10 µM): 0%
O[C@@H]1[C@H](O)[C@@H]2C[C@@H]2[C@H]1n1cnc2c(NCc3cccc(Cl)c3)ncnc21 [Compound 7]	2.22 ± 0.65 µM		7			75	35 ± 2	7	24	39		Ki [2]: 3.92 µM
Fc1ccc(C#Cc2nc(NCc3cccc(Cl)c3)c3nc[nH]c3n2)cc1F [Compound 8]	4 ± 1.92 µM		9			39	0	12	27	0		hA1AR % inhibition (hA1AR [9]): < 10%; hA2AAR % inhibition (hA2AAR [10]): < 10%; Ki (hA3AR): 0.12 µM
Clc1cccc(CNc2nc(Cl)nc3[nH]cnc23)c1 [Compound 9]	1.78 ± 0.35 µM					55	12	7	12	31	0	% inhibition as antagonist at 5HT2B (5HT2B receptor): 26%; IC50 (5HT2B receptor; [11]): 0.89 µM; % inhibition as antagonist at 5HT2C (5HT2C receptor): 65%; IC50 (α2C adrenergic receptor): 2.9 µM; hA1AR % inhibition (hA1AR [9]): 45%±3%; hA2AAR % inhibition (hA2AAR [10]): 37%±1%; Ki (hA3AR): 0.165 µM
O[C@@H]1[C@H](O)[C@@H]2C[C@@H]2[C@H]1n1cnc2c(NC(C3CC3)C3CC3)nc(Cl)nc21 [Compound 10]	0.64 µM and 0.641 µM	47					0	0	0	0	0	inhibition at 10 µM ([4]; single concentration 10 µM): 13%; IC50 (KXα3β4 receptor 2): 21.2 µM; IC50 (YXα3β4H1 receptor): 30.3 µM; inhibition of [3H]epibatidine binding (KXα4β2 receptor 2): no inhibition
